We go through 14 compounds from patent US4551450A, “Rifamycin hydrazones, pharmaceutical compositions containing them and their use” (Ciba-Geigy Corporation, priority 1984, dated 1985).

Series [1] concerns Mycobacterium tuberculosis TB H3 Rv. In words: Antituberculotic action, minimum inhibitory concentration in a plate test in vitro. It is filed as cell-based. Particulars: M. tuberculosis TB H3 Rv; for MIC: Mycobacterium tuberculosis, TBH3RV, read-out: Antituberculotic action, MIC (minimum inhibitory concentration), plate test in vitro; for Antituberculotic action, MIC (minimum inhibitory concentration): plate test in vitro. The text has this: (§1) (2) Test organism: Mycobacterium tuberculosis TB H3 Rv
(3) Minimum inhibitory concentration in a plate test in vitro.

Series [2] has the same test system. In words: Antituberculotic action, in vivo test (mice), administration p.o. More on the design: species or system Mycobacterium tuberculosis; mice. The conditions noted are these: for ED50: Mycobacterium tuberculosis, TBH3RV, po.
Description: as §1
(4) In vivo test (mice); administration p.o.

The nature of the next series: Pharmacokinetics in mice. It is filed as in vivo. The conditions noted are these: for half-life / Cmax: mouse; for half-life: read-out: t/2 (half-life period of excretion) (converted); for Cmax / Cmax (highest concentration of the active ingredient in the blood plasma): blood plasma; for Cmax: read-out: Cmax (highest concentration of the active ingredient in the blood plasma). The text has this: (§2) (5) Half-life period of excretion (in hours).
(§3) (6) Highest concentration of the active ingredient in the blood plasma.

The nature of a further series: Pharmacokinetics in rats. It is filed as in vivo. The conditions noted are these: for half-life / Cmax: rat; for half-life: in vivo, read-out: t/2 (half-life period of excretion) (converted); for Cmax: plasma, read-out: Cmax (highest concentration of the active ingredient in the blood plasma); for Cmax / Cmax (highest concentration of the active ingredient in the blood plasma): blood plasma.
Description: as §2, §3

[3] abbreviates: in vivo, mice, p.o., read-out: Antituberculotic action, ED50.

≈ marks a conversion by molar mass, not a printed value. Read-outs that look alike come from different tables or passages of the source.

In the case of `CO[C@H]1/C=C/O[C@@]2(C)Oc3c(C)c(O)c4c(O)c(c(C=NN5CCN6CCCC6C5)c(O)c4c3C2=O)NC(=O)/C(C)=C\C=C\[C@H](C)[C@H](O)[C@@H](C)[C@@H](O)[C@@H](C)[C@H](OC(C)=O)[C@@H]1C` (some centres unmarked) [Example 2, hydrazone of 3-formylrifamycin SV with 3-aminoperhydropyrrolo[1,2-a]pyrazine], the MIC in series [1] was found to be 0.1 µg/mL (≈ 0.118 µM). For the same compound, the ED50 (in general, the midpoint of the dose-response relation) in series [2] (setting [3]) is 2.5 mg/kg. Besides, the half-life was 9.1 h in “Pharmacokinetics in mice” (in vivo) and 13.2 h in “Pharmacokinetics in rats”. Besides, the Cmax in “Pharmacokinetics in mice” (plasma) is 57700 ng/mL; in “Pharmacokinetics in rats” it was 11600 ng/mL.
As to `COC1C=COC2(C)Oc3c(C)c(O)c4c(O)c(c(C=NN5CC6CCCCN6CC5C)c(O)c4c3C2=O)NC(=O)C(C)=CC=CC(C)C(O)C(C)C(O)C(C)C(OC(C)=O)C1C` (single isomer, unassigned) [Example 5 Isomer A, hydrazone of 3-formylrifamycin SV with 3-amino-2-methylperhydro-1H-pyrido[1,2-a]pyrazine], the “Antituberculotic action, MIC (minimum inhibitory concentration)” value in series [1] (listed as 5 Isomer A) worked out at 0.2 µg/mL. For the same compound, the ED50 in series [2] (setting [3]) stood at 3 mg/kg. Also, in the series “Pharmacokinetics in mice” (listed as 5 Isomer A), the “Cmax (highest concentration of the active ingredient in the blood plasma)” value came out at 15000 ng/mL and the “t/2 (half-life period of excretion)” value turned out to be 69.3 h. In “Pharmacokinetics in rats”, the half-life is 58.5 h and the Cmax came to 19700 ng/mL.
With `CCC1CCC2CN(N=Cc3c4c(O)c5c(O)c(C)c6c(c5c3O)C(=O)[C@@](C)(O/C=C/[C@H](OC)[C@@H](C)[C@@H](OC(C)=O)[C@H](C)[C@H](O)[C@H](C)[C@@H](O)[C@@H](C)/C=C/C=C(/C)C(=O)N4)O6)CCN2C1` (single isomer, unassigned) [Example 4 Isomer A, hydrazone of 3-formylrifamycin SV with 3-amino-7-ethylperhydro-1H-pyrido[1,2-a]pyrazine], in series [1] (listed as 4 Isomer A), the “Antituberculotic action, MIC (minimum inhibitory concentration)” value is 0.01 µg/mL. Further, the 50% effective dose (ED50) in series [2] (setting [3]) came out at 0.8 mg/kg. Further, in the series “Pharmacokinetics in mice” (in vivo), the half-life is 55.1 h. For the same compound, the Cmax in “Pharmacokinetics in mice” (plasma) is 29500 ng/mL.
Regarding `CO[C@H]1/C=C/O[C@@]2(C)Oc3c(C)c(O)c4c(O)c(c(C=NN5CCN6C(C)CCCC6C5)c(O)c4c3C2=O)NC(=O)/C(C)=C\C=C\[C@H](C)[C@H](O)[C@@H](C)[C@@H](O)[C@@H](C)[C@H](OC(C)=O)[C@@H]1C` (some centres unmarked) [Example 3, hydrazone of 3-formylrifamycin SV with 3-amino-8-methylperhydro-1H-pyrido[1,2-a]pyrazine], the MIC in series [1] came to 0.4 µg/mL (≈ 0.456 µM). The ED50 in series [2] (read-out: Antituberculotic action, ED50, in vivo, mice, p.o.) worked out at 1 mg/kg. In addition, in the series “Pharmacokinetics in mice” (in vivo), the half-life is 14 h. Besides, in “Pharmacokinetics in mice” (plasma), the Cmax stood at 22600 ng/mL.
Turning to `CCC1CCC2CN(N=Cc3c4c(O)c5c(O)c(C)c6c(c5c3O)C(=O)[C@@](C)(O/C=C/[C@H](OC)[C@@H](C)[C@@H](OC(C)=O)[C@H](C)[C@H](O)[C@H](C)[C@@H](O)[C@@H](C)/C=C/C=C(/C)C(=O)N4)O6)CCN2C1` (single isomer, unassigned) [Example 4 Isomer B, hydrazone of 3-formylrifamycin SV with 3-amino-7-ethylperhydro-1H-pyrido[1,2-a]pyrazine], the “Antituberculotic action, MIC (minimum inhibitory concentration)” value in series [1] (listed as 4 Isomer B) was found to be 0.03 µg/mL. In addition, the “Antituberculotic action, ED50” value in series [2] (in vivo, mice, p.o.) stood at 1 mg/kg. In “Pharmacokinetics in mice”, the “t/2 (half-life period of excretion)” value was determined as 44.6 h and the “Cmax (highest concentration of the active ingredient in the blood plasma)” value turned out to be 26400 ng/mL.
For the compound `COC1C=COC2(C)Oc3c(C)c(O)c4c(O)c(c(C=NN5CC6CCCCN6CC5C)c(O)c4c3C2=O)NC(=O)C(C)=CC=CC(C)C(O)C(C)C(O)C(C)C(OC(C)=O)C1C` (single isomer, unassigned) [Example 5 Isomer C, hydrazone of 3-formylrifamycin SV with 3-amino-2-methylperhydro-1H-pyrido[1,2-a]pyrazine], in series [1] (listed as 5 Isomer C), the “Antituberculotic action, MIC (minimum inhibitory concentration)” value was 0.06 µg/mL. Besides, in series [2] (in vivo, mice, p.o., listed as 5 Isomer C), the “Antituberculotic action, ED50” value amounted to 3 mg/kg. In the series “Pharmacokinetics in mice” (listed as 5 Isomer C), the “Cmax (highest concentration of the active ingredient in the blood plasma)” value was 23700 ng/mL and the “t/2 (half-life period of excretion)” value was 15 h.
On to `COC1C=COC2(C)Oc3c(C)c(O)c4c(O)c(c(C=NN5CC6CCCCN6CC5C)c(O)c4c3C2=O)NC(=O)C(C)=CC=CC(C)C(O)C(C)C(O)C(C)C(OC(C)=O)C1C` (single isomer, unassigned) [Example 5 Isomer D, hydrazone of 3-formylrifamycin SV with 3-amino-2-methylperhydro-1H-pyrido[1,2-a]pyrazine], for which the “Antituberculotic action, MIC (minimum inhibitory concentration)” value in series [1] (listed as 5 Isomer D) came to 0.06 µg/mL. Moreover, in series [2] (in vivo, mice, p.o., listed as 5 Isomer D), the “Antituberculotic action, ED50” value was 3 mg/kg. Besides, in “Pharmacokinetics in mice” (listed as 5 Isomer D), the “Cmax (highest concentration of the active ingredient in the blood plasma)” value came out at 33600 ng/mL and the “t/2 (half-life period of excretion)” value is reported as 25.1 h.
In the case of `COC1C=COC2(C)Oc3c(C)c(O)c4c(O)c(c(C=NN5CC6CCCCN6CC5C)c(O)c4c3C2=O)NC(=O)C(C)=CC=CC(C)C(O)C(C)C(O)C(C)C(OC(C)=O)C1C` (single isomer, unassigned) [Example 5 Isomer B, hydrazone of 3-formylrifamycin SV with 3-amino-2-methylperhydro-1H-pyrido[1,2-a]pyrazine], the “Antituberculotic action, MIC (minimum inhibitory concentration)” value in series [1] (listed as 5 Isomer B) came out at 0.4 µg/mL. Besides, in series [2] (in vivo, mice, p.o., listed as 5 Isomer B), the “Antituberculotic action, ED50” value is 2 mg/kg. For the same compound, in the series “Pharmacokinetics in mice” (listed as 5 Isomer B), the “Cmax (highest concentration of the active ingredient in the blood plasma)” value is 38800 ng/mL and the “t/2 (half-life period of excretion)” value came out at 66 h. In the series “Pharmacokinetics in rats”, the “t/2 (half-life period of excretion)” value turned out to be 44.7 h and the “Cmax (highest concentration of the active ingredient in the blood plasma)” value is 16400 ng/mL.
For `COC1C=COC2(C)Oc3c(C)c(O)c4c(O)c(c(C=NN5CCN6CCCCC6C5)c(O)c4c3C2=O)NC(=O)C(C)=CC=CC(C)C(O)C(C)C(O)C(C)C(OC(C)=O)C1C` (centres unmarked) [Example 1], in series [1], the “Antituberculotic action, MIC (minimum inhibitory concentration)” value is 0.03 µg/mL. For the same compound, in series [2] (in vivo, mice, p.o.), the “Antituberculotic action, ED50” value worked out at 0.8 mg/kg. For the same compound, in “Pharmacokinetics in mice”, the “t/2 (half-life period of excretion)” value was found to be 20 h and the “Cmax (highest concentration of the active ingredient in the blood plasma)” value came out at 27300 ng/mL. For the same compound, in the series “Pharmacokinetics in rats”, the “t/2 (half-life period of excretion)” value is recorded as 17.0 h and the “Cmax (highest concentration of the active ingredient in the blood plasma)” value is 24500 ng/mL.
Turning to `CO[C@H]1/C=C/O[C@@]2(C)Oc3c(C)c(O)c4c(O)c(c(C=NN5CCN6CCSCC6C5)c(O)c4c3C2=O)NC(=O)/C(C)=C\C=C\[C@H](C)[C@H](O)[C@@H](C)[C@@H](O)[C@@H](C)[C@H](OC(C)=O)[C@@H]1C` (some centres unmarked) [Example 8, hydrazone of 3-formylrifamycin SV with 6-aminoperhydropyrazolo[2,1-c]-p-thiazine], in series [1], the MIC stood at 0.2 µg/mL (≈ 0.227 µM). Further, the ED50 in series [2] (setting [3]) stood at 8 mg/kg. Also, the half-life in the series “Pharmacokinetics in mice” (in vivo) is 8.9 h. The Cmax in the series “Pharmacokinetics in mice” (plasma) came to 72000 ng/mL.
Consider `CO[C@H]1/C=C/O[C@@]2(C)Oc3c(C)c(O)c4c(O)c(c(C=NN5CCN6c7ccccc7CCC6C5)c(O)c4c3C2=O)NC(=O)/C(C)=C\C=C\[C@H](C)[C@H](O)[C@@H](C)[C@@H](O)[C@@H](C)[C@H](OC(C)=O)[C@@H]1C` (some centres unmarked) [Example 7, hydrazone of 3-formylrifamycin SV with 3-amino-2,3,4,4a,5,6-hexahydro-1H-pyrazino[1,2-a]quinoline], for which the MIC in series [1] is 0.06 µg/mL (≈ 0.0659 µM). In addition, in series [2] (setting [3]), the median effective dose (ED50) came to 4.5 mg/kg. Moreover, in the series “Pharmacokinetics in mice” (in vivo), the half-life was 32.2 h. The Cmax in “Pharmacokinetics in mice” (plasma) is 24000 ng/mL.
In the case of `CO[C@H]1/C=C/O[C@@]2(C)Oc3c(C)c(O)c4c(O)c(c(C=NN5CCN6C(CCC7CCCCC76)C5)c(O)c4c3C2=O)NC(=O)/C(C)=C\C=C\[C@H](C)[C@H](O)[C@@H](C)[C@@H](O)[C@@H](C)[C@H](OC(C)=O)[C@@H]1C` (single isomer, unassigned) [Example 6 Isomer A, hydrazone of 3-formylrifamycin SV with 3-aminoperhydro-1H-pyrazino[1,2-a]quinoline], the “Antituberculotic action, MIC (minimum inhibitory concentration)” value in series [1] (listed as 6 Isomer A) came to 0.03 µg/mL. For the same compound, in “Pharmacokinetics in mice” (in vivo), the Cmax came out at 56300 ng/mL and the half-life was 33.4 h.
With `CO[C@H]1/C=C/O[C@@]2(C)Oc3c(C)c(O)c4c(O)c(c(C=NN5CCN6C(CCC7CCCCC76)C5)c(O)c4c3C2=O)NC(=O)/C(C)=C\C=C\[C@H](C)[C@H](O)[C@@H](C)[C@@H](O)[C@@H](C)[C@H](OC(C)=O)[C@@H]1C` (single isomer, unassigned) [Example 6 Isomer B, hydrazone of 3-formylrifamycin SV with 3-aminoperhydro-1H-pyrazino[1,2-a]quinoline], the “Antituberculotic action, MIC (minimum inhibitory concentration)” value in series [1] (listed as 6 Isomer B) is 0.007 µg/mL. In the series “Pharmacokinetics in mice”, the “t/2 (half-life period of excretion)” value stood at 40.9 h and the “Cmax (highest concentration of the active ingredient in the blood plasma)” value worked out at 34000 ng/mL.
In the case of `COC1C=COC2(C)Oc3c(C)c(O)c4c(O)c(c(C=NN5CCN6CCN(C)CC6C5)c(O)c4c3C2=O)NC(=O)C(C)=CC=CC(C)C(O)C(C)C(O)C(C)C(OC(C)=O)C1C` (centres unmarked) [Example 9, hydrazone of 3-formylrifamycin SV with 3-amino-6-methylperhydro-1H-pyrazino[1,2-a]pyrazine], in series [1], the “Antituberculotic action, MIC (minimum inhibitory concentration)” value is 0.1 µg/mL.
